Measurements taken from PMC10144242, “Design, Synthesis, In Vitro, and In Silico Insights of 5-(Substituted benzylidene)-2-phenylthiazol-4(5H)-one Derivatives: A Novel Class of Anti-Melanogenic Compounds” (Molecules, 2023).

Experiments:
Type in all cases: cell-based, murine
[1] = target: T1, B16F10 cellular tyrosinase (Mus musculus, UniProt P11344); assay: Cellular anti-tyrosinase activity assay in IBMX/α-MSH-stimulated cells; conditions: 72 h; for cellular tyrosinase inhibitory activity: IBMX + α-MSH; for effect on cellular tyrosinase activity enhanced by stimulators: B16F10, 5, 10, 20 µM, IBMX 200 µM + α-MSH 1 µM
T1 construct: the anti-tyrosinase effects of these derivatives were investigated using B16F10 cells; host or cells: B16F10 murine melanoma cells
T1 sequence (P11344 19-533): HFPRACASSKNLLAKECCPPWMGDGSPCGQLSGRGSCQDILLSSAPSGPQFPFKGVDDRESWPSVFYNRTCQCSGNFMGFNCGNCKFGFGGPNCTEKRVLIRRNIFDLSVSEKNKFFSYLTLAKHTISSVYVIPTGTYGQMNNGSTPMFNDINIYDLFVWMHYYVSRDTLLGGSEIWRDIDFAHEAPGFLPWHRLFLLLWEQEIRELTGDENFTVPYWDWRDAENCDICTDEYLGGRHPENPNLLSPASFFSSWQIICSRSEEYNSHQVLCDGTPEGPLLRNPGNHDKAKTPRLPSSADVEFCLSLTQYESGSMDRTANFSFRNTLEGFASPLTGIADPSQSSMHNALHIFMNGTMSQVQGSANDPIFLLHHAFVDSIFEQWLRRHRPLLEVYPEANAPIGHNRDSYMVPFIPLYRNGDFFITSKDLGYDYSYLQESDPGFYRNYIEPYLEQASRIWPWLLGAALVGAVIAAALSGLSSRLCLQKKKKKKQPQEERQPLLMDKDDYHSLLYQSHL
Experimental: To examine the origin of the anti-melanogenic effects of (Z)-BPT derivatives 1 and 2, the anti-tyrosinase effects of these derivatives were investigated using B16F10 cells. […] After 72 h of incubation, the effects of 1 and 2 on cellular tyrosinase activity were analyzed.
Briefly, B16F10 melanoma cells were seeded in a 6-well plate at a density of 1 × 10^5 cells/well and allowed to adhere to the bottom of each well under identical conditions to the cell culture. […] After incubation for 1 h, the tyrosinase activity of the cells was increased by treatment with 200 µM IBMX and 1 µM α-MSH. The cells were incubated for 72 h under identical conditions to cell culture before being rinsed twice with PBS, exposed to a 100 µL lysis buffer solution consisting of 90 µL phosphate buffer (50 mM) at pH 6.5, 5 µL PMSF (2 mM), and 5 µL Triton X-100 (20%), and then incubated for 30 min at −80 °C. The cell lysates were placed into microcentrifuge tubes after defrosting and they were centrifuged at 12,000 rpm at 4 °C for 30 min. The supernatants (80 µL) of the lysates were combined with 20 µL of 10 mM L-DOPA in a 96-well plate. Using a microplate reader used for the melanin content assay, the mixture’s absorbances were measured every 10 min for 1 h at 37 °C and 492 nm. Each experiment was performed independently in triplicates.
Figure 8 Anti-tyrosinase activities of (Z)-BPT derivatives 1 and 2 in B16F10 cells. […] (A) Derivative 1 and (B) derivative 2. Data are presented as the mean ± standard error of the mean. ^### p < 0.001; * p < 0.05, ** p < 0.01, and *** p < 0.001.

[2] = tested on: tyrosinase protein expression in B16F10 cells; assay: Western blot of tyrosinase protein in IBMX/α-MSH-stimulated cells; conditions: for tyrosinase expression level relative to untreated control: B16F10, 20 µM, IBMX 200 µM + α-MSH 1 µM, stimulator alone 6.6-fold (for 1), 5.7-fold (for 2); for effect on tyrosinase expression levels: B16F10, 5, 10, 20 µM, IBMX + α-MSH
Experimental: We investigated whether the derivatives 1 and 2 could influence the expression of tyrosinase protein using Western blotting. […] At 20 µM, derivatives 1 and 2 reduced the tyrosinase expression levels that increased during the stimulator treatment to 4.4- and 3.1-fold, respectively, implying that derivatives 1 and 2 may, in part, contribute to their anti-melanogenic actions by inhibiting tyrosinase expression.
After stimulating murine melanoma (B16F10) cells with α-MSH and IBMX for 24 h in the presence or absence of the tested derivatives at the indicated concentrations, the cells were lysed with lysis buffer containing protease and phosphatase inhibitors. Protein concentrations were determined using a BCA protein assay kit, according to the manufacturer’s instructions (Pierce, Rockford, IL, USA). Lysate proteins in each sample (10–20 µg) were subjected to 9% sodium dodecyl sulfate–polyacrylamide gel electrophoresis and electrophoretically transferred to a PVDF membrane (Millipore, Billerica, MA, USA) using a semi-dry system (Bio-Rad, Hercules, CA, USA). The membranes were incubated with 5% non-fat milk in TBST (0.1 M Tris-HCl, pH 7.5, 1.5 M NaCl, and 1% Tween 20) for 2 h. After blocking, the membranes were incubated with primary antibodies at 4 °C overnight. The following antibodies were used: tyrosinase and β-actin primary antibodies, as well as horseradish peroxidase-conjugated anti-mouse and anti-goat secondary antibodies (Santa Cruz Biotechnology, Dallas, TX, USA). The protein bands were visualized using the SuperSignal West Pico Chemiluminescence assay kit (Advansta, San Jose, CA, USA) and the Davinch–Chem program (Davinch-K, Seoul, Republic of Korea). The relative intensities were acquired using CS Analyzer 3.2 (Densitograph) image analysis software (http://www.attokorea.co.kr, accessed on 21 November 2022).
Figure 13 Effects of (Z)-BPT derivatives 1 and 2 on tyrosinase expression. Tyrosinase expression levels were evaluated in the presence of a stimulator (1 µM of α-MSH plus 200 µM of IBMX) with various concentrations (5, 10, and 20 µM) of derivatives 1 and 2 in B16F10 cells. ^### p < 0.001; * p < 0.05, and ** p < 0.01.

[3] = tested on: B16F10 cells; assay: Melanin content (anti-melanogenesis) assay in IBMX/α-MSH-stimulated cells; conditions: 72 h; for effect on cellular melanin content: B16F10, 20 µM, IBMX + α-MSH; for effect on cellular melanin content increased by stimulators: B16F10, 5, 10, 20 µM, IBMX 200 µM + α-MSH 1 µM
Experimental: Cells were exposed to four different concentrations (0, 5, 10, and 20 µM) of 1 and 2 prior to treatment with stimulators (3-isobutyl-1-methylxanthine (IBMX, 200 µM), and α-melanocyte stimulating hormone (α-MSH, 1 µM)). After 72 h of incubation, the effects of 1 and 2 on melanin production were determined. Cellular melanin levels were assessed by measuring melanin levels in cell lysates.
The melanin content assay standard procedure was used to investigate the anti-melanogenic effect of (Z)-BPT derivatives 1 and 2 with a few minor modifications. Briefly, B16F10 melanoma cells were seeded in each well of a 6-well plate at a density of 1 × 10^5 cells/well and allowed to adhere to the well bottom under conditions that were identical to those used for cell culture. […] For 72 h, B16F10 cells were incubated at 37 °C in a humid environment containing 5% CO2 after being treated with IBMX and α-MSH. To determine the intracellular melanin content, B16F10 cells stimulated with IBMX and α-MSH for 72 h were rinsed twice with PBS and incubated in 200 µL 1N-NaOH solution including 10% dimethyl sulfoxide (DMSO) at 60 °C. The cell lysates were transferred to a 96-well plate after an hour of incubation, and the absorbance of the melanin content was calculated using a VersaMax^TM microplate reader (Molecular Devices, Sunnyvale, CA, USA) to determine intracellular melanin levels. Each experiment was performed independently in triplicates.
Figure 7 Effects of (Z)-BPT derivatives 1 and 2 on cellular melanin levels in B16F10 cells. […] (A) Derivative 1 and (B) derivative 2.

SMILES	cellular tyrosinase inhibitory activity ([1]; B16F10, 20 µM)	effect on cellular tyrosinase activity enhanced by stimulators [1]	tyrosinase expression level relative to untreated control [2]	effect on tyrosinase expression levels [2]	effect on cellular melanin content [3]	effect on cellular melanin content increased by stimulators [3]	cellular tyrosinase inhibitory activity ([1]; B16F10, 5 µM)
O=C1N=C(c2ccccc2)S/C1=C\c1ccc(O)cc1 [Compound 1, (Z)-5-(4-Hydroxybenzylidene)-2-phenylthiazol-4(5H)-one]	stronger inhibitory activity than kojic acid	dose-dependently and significantly decreased	4.4 fold	significantly reduced the tyrosinase expression levels in a dose-dependent manner	more effectively than kojic acid	significantly and dose-dependently diminished	
O=C1N=C(c2ccccc2)S/C1=C\c1ccc(O)cc1O [Compound 2, (Z)-5-(2,4-Dihydroxybenzylidene)-2-phenylthiazol-4(5H)-one]	reduced the cellular tyrosinase activity to the levels observed in the untreated control	dose-dependently and significantly decreased	3.1 fold	significantly reduced the tyrosinase expression levels in a dose-dependent manner	below those of the non-treated control	significantly and dose-dependently diminished	comparable to that of 20 µM kojic acid
